Assay results from Sander's compilation of Henry's law constants (doi:10.1021/ac0604742).

Assay: Henry solubility constant Hcp at 298.15 K (mol/(m3 Pa))
Details: reference: Fang et al. (2006)

Structure (SMILES)	Henry solubility constant Hcp
Clc1ccc(-c2cc(Cl)c(Cl)c(Cl)c2)c(Cl)c1 [2,3',4,4',5'-pentachlorobiphenyl]	0.046
Clc1cc(Cl)c(-c2cc(Cl)c(Cl)c(Cl)c2)cc1Cl [2,3',4,4',5,5'-hexachlorobiphenyl]	0.078
Clc1ccc(-c2cc(Cl)c(Cl)cc2Cl)cc1Cl [2,3',4,4',5-pentachlorobiphenyl]	0.057
Clc1cc(-c2ccc(Cl)c(Cl)c2Cl)cc(Cl)c1Cl [2,3,3',4,4',5'-hexachlorobiphenyl]	0.06
Clc1cc(-c2cc(Cl)c(Cl)c(Cl)c2Cl)cc(Cl)c1Cl [2,3,3',4,4',5,5'-heptachlorobiphenyl]	0.084
Clc1ccc(-c2cc(Cl)c(Cl)c(Cl)c2Cl)cc1Cl [2,3,3',4,4',5-hexachlorobiphenyl]	0.068
Clc1ccc(-c2ccc(Cl)c(Cl)c2Cl)cc1Cl [2,3,3',4,4'-pentachlorobiphenyl]	0.18
Clc1cc(-c2cc(Cl)c(Cl)c(Cl)c2)cc(Cl)c1Cl [3,3',4,4',5,5'-hexachlorobiphenyl]	0.081
Clc1ccc(-c2cc(Cl)c(Cl)c(Cl)c2)cc1Cl [3,3',4,4',5-pentachlorobiphenyl]	0.1
Clc1ccc(-c2ccc(Cl)c(Cl)c2)cc1Cl [3,3',4,4'-tetrachlorobiphenyl]	0.091
Clc1ccc(-c2cc(Cl)c(Cl)c(Cl)c2)cc1 [3,4,4',5-tetrachlorobiphenyl]	0.088
